Test results published in PMC7151704, “4-Amino-1,2,4-triazole-3-thione as a Promising Scaffold for the Inhibition of Serine and Metallo-β-Lactamases” (Pharmaceuticals, 2020).

How the values were obtained:
Assay in all cases: nitrocefin hydrolysis, spectrophotometric; Ki from IC50 by Cheng-Prusoff
Format in all cases: biochemical
VIM-1 = target: T1, VIM-1 (Pseudomonas aeruginosa, UniProt Q9XAY4)
T1 construct: gene blaVIM; recombinant untagged, pET-24a(+) blaVIM-1 (pBPAQND2009), E. coli BL21(DE3); High Q and Superdex 75; zinc-supplemented buffers

IMP-1 = target: T2, IMP-1 (Pseudomonas aeruginosa, UniProt Q79MP6)
T2 construct: gene blaIMP-1; codon-optimised wild type gene, pETite N-His SUMO Kan, E. coli Lemo21(DE3); His-SUMO cleaved by SUMO protease; IMAC and Superose 12

KPC-2 = target: T3, KPC-2 (Klebsiella pneumoniae, UniProt Q9F663)
T3 construct: recombinant, 'full-length KPC-2 enzyme'
Source text: nitrocefin hydrolysis, spectrophotometric; Ki from IC50 by Cheng-Prusoff on KPC-2

T3 sequence (Q9F663 25-293 limits assumed): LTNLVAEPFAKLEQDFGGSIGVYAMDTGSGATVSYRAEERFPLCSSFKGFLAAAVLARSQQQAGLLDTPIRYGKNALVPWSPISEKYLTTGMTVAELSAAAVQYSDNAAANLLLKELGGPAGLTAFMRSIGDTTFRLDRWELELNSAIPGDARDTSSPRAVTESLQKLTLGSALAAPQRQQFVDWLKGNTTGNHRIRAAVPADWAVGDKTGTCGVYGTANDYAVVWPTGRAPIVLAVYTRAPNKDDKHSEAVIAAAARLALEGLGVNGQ
T2 sequence (Q79MP6 19-246 limits assumed): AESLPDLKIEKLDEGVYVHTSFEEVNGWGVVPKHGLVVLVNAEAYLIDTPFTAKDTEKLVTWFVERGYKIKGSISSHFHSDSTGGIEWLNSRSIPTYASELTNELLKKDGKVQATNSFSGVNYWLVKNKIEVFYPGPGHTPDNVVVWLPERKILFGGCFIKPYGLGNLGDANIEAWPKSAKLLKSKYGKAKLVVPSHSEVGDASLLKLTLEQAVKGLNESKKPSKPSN

Row | Structure (SMILES) | Ki (VIM-1) [µM] | Ki (IMP-1) [µM] | Ki (KPC-2) [µM]
1 | CCN(CC)c1ccc(CNn2cn[nH]c2=S)cc1 [1d, 4-((4-(diethylamino)benzyl)amino)-2,4-dihydro-3H-1,2,4-triazole-3-thione] | 224 ± 11 | 173 ± 6 | 263 ± 13
2 | S=c1[nH]ncn1NCc1ccc2c(c1)OCO2 [1f, 4-((benzo[d][1,3]dioxol-5-ylmethyl)amino)-2,4-dihydro-3H-1,2,4-triazole-3-thione] | 120 ± 4 | 125 ± 5 | 138 ± 3
3 | Sc1nncn1/N=C/c1ccc(Br)cc1 [2b, 4-((4-bromobenzylidene)amino)-2,4-dihydro-3H-1,2,4-triazole-3-thione] | 58 ± 2 | 285 ± 13 | 158 ± 7
4 | S=c1[nH]ncn1/N=C/c1c[nH]c2ccccc12 [2g, 4-(((1H-indol-3-yl)methylene)amino)-2,4-dihydro-3H-1,2,4-triazole-3-thione] | 95 ± 3 | 104 ± 4 | 139 ± 4
